# Counter-ions that a name gives are not always drawn. Like-named read-outs stand apart in the source and are kept apart here.
# Tests used:
# dopamine D2-receptor = biological target: T1, dopamine D2-receptor (Rattus norvegicus, UniProt P61169); assay: Dopamine D2-receptor radioligand-binding assay (3H-spiperone, brain striatum membranes); design: species or system rat (male Wistar)
# T1 construct: The homogenates were centrifuged and synaptic membrane fractions were obtained; from tissue; host or cells: brain striatum, synaptic membrane fraction, male Wistar rat
# T1 sequence (P61169 whole entry): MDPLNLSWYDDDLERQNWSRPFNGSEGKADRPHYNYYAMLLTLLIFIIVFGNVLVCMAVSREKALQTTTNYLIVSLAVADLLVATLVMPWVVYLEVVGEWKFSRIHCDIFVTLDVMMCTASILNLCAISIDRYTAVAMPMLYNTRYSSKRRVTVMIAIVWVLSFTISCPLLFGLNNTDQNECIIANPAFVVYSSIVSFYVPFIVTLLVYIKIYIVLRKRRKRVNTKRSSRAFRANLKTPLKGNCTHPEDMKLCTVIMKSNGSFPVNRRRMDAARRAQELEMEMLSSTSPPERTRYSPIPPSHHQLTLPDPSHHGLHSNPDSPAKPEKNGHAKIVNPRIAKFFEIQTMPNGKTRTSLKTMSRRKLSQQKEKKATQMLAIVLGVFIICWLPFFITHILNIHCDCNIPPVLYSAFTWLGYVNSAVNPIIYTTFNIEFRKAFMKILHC
# Experimental: Dopamine D2 -receptor radioligand-binding assay
# Method: These experiments were done according to the method of Coward, D et al. (Naunyn-Schmiedeberg's Archives of Pharmacology (1987)335, 115-122). Briefly, brain striatum were isolated from male Wistar rats (about 200 g b.w.). The tissues were homogenaized in ice-cold 50 mM Tris buffer (pH7.4) with a polytron and centrifuged at 50,000 g for 15 min.. The pellets were homogenaized in the same Tris buffer and incubated for 5 min. at 37° C. The homogenates were centrifuged and synaptic membrane fractions were obtained. The membrane fractions were incubated with ^3 H-spiperone and various concentrations of the test compounds for 50 min. at 25° C. The reaction was terminated by filtration on a GF/B glass filter under vacuum. The radioactivity on the filter was measured using a liquid scintillation counter. The test compounds' dissociation constants (Ki) were determined according to the following equation.
# IC50 : the test compound concentration needed to inhibit 50% of ^3 H-spiperone binding calculated by pseudo-Hill plot.
# L : ^3 H-spiperone concentration
# Kd : ^3 H-spiperone dissociation constant calculated by Scatchard plot.
# The pKi values was then expressed as the negative logarithum of Ki. This value represents an affinity of the test compound to dopamine D2 -receptors. Non-specific binding of ^3 H-spiperone was determined in the presence of 10^-5 M sulpiride. Protein concentration was determined by the method of Lowry.
# α1-adrenoceptor = α1-adrenoceptor blocking action (noradrenaline concentration-response in isolated thoracic aorta); assay type: cell-based, rabbit (Japanese white, male); conditions: for pA2 value: negative logarithm of KB (M), noradrenaline as agonist, rabbit thoracic aorta, 30 min exposure, 10^-6 M propranolol; for α1-adrenoceptor selectivity 10^(pA2-pKi): α1-adrenoceptors (pA2, rabbit aorta) compared to dopamine D2-receptors (pKi, rat striatum)
# Experimental: α1 -adrenoceptor blocking action
# Method: The thoracic aorta were isolated from male rabbits (Japanese white, about 2.5 kg b.w.) and helically cut. The preparations were suspended in Krebs-Henseleit solution maintained at 37° C. and aerated with a gas mixture of 95%O2 +5%CO2. Responses to drugs were recorded isometrically under a tension of 2 g. After an equilibration period of about 60 min., cumulative concentration-response curves for noradrenaline were constructed. The preparations were exposed to the test compounds for 30 min. before rechallenge with noradrenaline. The dose ratio was obtained from the ratio of an ED50 value (the concentration needs to produce the half maximum response) of noradrenaline in the presence and absence of the test compound. The test compounds dissociation constants (KB) were determined according to the following equation.
# KB =[concentration of the test compound (M)/(dose ratio-1)]
# The pA2 values were then expressed as the negative logarithm of KB.
# This value represents the blocking activity of a test compound to α1 -adrenoceptors. In these experimental periods, 10^-6 M propranolol was treated to block β-adrenoceptors. The results shown in Table 1-a indicate that the α1 -adrenoceptor blocking activites of the test compounds are almost the as same as that of YM-12617.
# The selectivity of the test compound to α1 -adrenoceptors compared to dopamine D2 -receptors is determined according to the following equation.
# α1 -adrenoceptor selectivity =10^(pA 2^-pK i^)
# [1] = 3H-spiperone, rat striatum synaptic membranes, 50 min at 25° C., non-specific binding with 10^-5 M sulpiride, read-out: pKi value (converted)
compound,measurement,setting,value
"CCOc1ccccc1OCCNC(C)Cc1ccc(OC)c(S(N)(=O)=O)c1 (racemic) [YM-12617, 5-[2-[[2-(2-ethoxyphenoxy)ethyl]amino]propyl]-2-methoxybenzene-sulfonamidehydrochloride, reference compound]",Ki,dopamine D2-receptor; [1],20.9 nM
same,pA2 value,α1-adrenoceptor,9.38
same,α1-adrenoceptor selectivity 10^(pA2-pKi),α1-adrenoceptor,50
"CCOc1ccc(CC(C)NCCOc2cc(F)ccc2OC)cc1S(N)(=O)=O (stereo not drawn) [Example 2, 2-Ethoxy-5-[2-[2-(5-fluoro-2-methoxyphenoxy)ethylamino]propyl] benzenesulfonamide hydrochloride]",Ki,dopamine D2-receptor; [1],166 nM
same,pA2 value,α1-adrenoceptor,9.05
same,α1-adrenoceptor selectivity 10^(pA2-pKi),α1-adrenoceptor,186
"CCNS(=O)(=O)c1cc(CC(C)NCCOc2cc(F)ccc2OC)ccc1OC (stereo not drawn) [Example 21, N-Ethyl-5-[2-(5-fluoro-2-methoxyphenoxy)ethylamino]propyl]-2-methoxy-benzenesulfonamide oxalate]",Ki,dopamine D2-receptor,93.3 nM
same,pA2 value,α1-adrenoceptor,9.14
"CCCCNS(=O)(=O)c1cc(CC(C)NCCOc2cc(F)ccc2OC)ccc1OC.O=C(O)C(=O)O (stereo not drawn) [Example 22, N-Butyl-5-[2-[2-(5-fluoro-2-methoxyphenoxy)ethylamino]propyl]-2-methoxybenzenesulfonamide oxalate]",Ki,dopamine D2-receptor,77.6 nM
same,pA2 value,α1-adrenoceptor,9.08
"CCCNS(=O)(=O)c1cc(CC(C)NCCOc2cc(F)ccc2OC)ccc1OC (stereo not drawn) [Example 20, 5-[2[2-(5-Fluoro-2-methoxyphenoxy)ethylamino]propyl]-2-methoxy-N-propylbenzenesulfonamide 1/2fumarate]",Ki,dopamine D2-receptor; [1],129 nM
same,pA2 value,α1-adrenoceptor,9.10
"COc1ccc(F)cc1OCCNC(C)Cc1ccc(OC)c(S(=O)(=O)N2CCCC2)c1.O=C(O)C(=O)O (stereo not drawn) [Example 11, 1-[[5-[2-[2-(5-Fluoro-2-methoxyphenoxy)ethylamino]propyl]-2methoxyphenyl]sulfonyl]pyrrolidine oxalate]",Ki,dopamine D2-receptor,64.6 nM
same,pA2 value,α1-adrenoceptor,9.33
"CNS(=O)(=O)c1cc(CC(C)NCCOc2cc(F)ccc2OC)ccc1OC.O=C(O)C(=O)O (stereo not drawn) [Example 9, 5-[2-[2-(5-Fluoro-2-methoxyphenoxy)ethylamino]propyl]-2-methoxy-N-methylbenzenesulfonamide oxalate]",Ki,dopamine D2-receptor,93.3 nM
same,pA2 value,α1-adrenoceptor,9.34
"CCOc1ccc(F)cc1OCCNC(C)Cc1ccc(OCC)c(S(N)(=O)=O)c1 (stereo not drawn) [Example 5, 2-Ethoxy-5-[2-[2-(2-ethoxy-5-fluorophenoxy)ethylamino]propyl] benzenesulfonamide hydrochloride]",Ki,dopamine D2-receptor,83.2 nM
same,pA2 value,α1-adrenoceptor,8.98
same,α1-adrenoceptor selectivity 10^(pA2-pKi),α1-adrenoceptor,79
"COc1ccc(F)cc1OCCN[C@H](C)Cc1ccc(OC)c(S(N)(=O)=O)c1.Cl [Example 34, R-(-)-5-[2-[2-(5-Fluoro-2-methoxyphenoxy)-ethylamino]propyl]-2-methoxybenzenesulfonamide hydrochloride]",Ki,dopamine D2-receptor,74.1 nM
same,pA2 value,α1-adrenoceptor,9.77
same,α1-adrenoceptor selectivity 10^(pA2-pKi),α1-adrenoceptor,437
"COc1ccc(F)cc1OCCNC(C)Cc1ccc(OC)c(S(=O)(=O)N(C)C)c1 (stereo not drawn) [Example 10, 5-[2-[2-(5-Fluoro-2-methoxyphenoxy)ethylamino]propy]-2-methoxy-N,N-dimethylbenzenesulfonamide oxalate]",Ki,dopamine D2-receptor; [1],110 nM
same,pA2 value,α1-adrenoceptor,9.42
same,α1-adrenoceptor selectivity 10^(pA2-pKi),α1-adrenoceptor,288
"COc1ccc(F)cc1OCCNC(C)Cc1ccc(OC)c(S(N)(=O)=O)c1 (stereo not drawn) [Example 1, 5-[2-[2-(5-Fluoro-2-methoxyphenoxy)ehtylamino]propyl]-2-methoxybenzenesulfonamide hydrochloride]",Ki,dopamine D2-receptor; [1],120 nM
same,pA2 value,α1-adrenoceptor,9.45
same,α1-adrenoceptor selectivity 10^(pA2-pKi),α1-adrenoceptor,339
"CCOc1ccc(F)cc1OCCNC(C)Cc1ccc(OC)c(S(N)(=O)=O)c1.Cl (stereo not drawn) [Example 14, 5-[2-[2-(2-Ethoxy-5-fluorophenoxy)ethylamino]propyl]-2-methoxybenzenesulfonamide hydrochloride]",Ki,dopamine D2-receptor,23.4 nM
same,pA2 value,α1-adrenoceptor,9.69
same,α1-adrenoceptor selectivity 10^(pA2-pKi),α1-adrenoceptor,115
"COc1ccc(F)cc1OCCNC(C)Cc1ccc(OC)c(S(=O)(=O)N2CCCCC2)c1 (stereo not drawn) [Example 12, 1-[[5-[2-[2-(5-Fluoro-2-methoxyphenoxy)ethylamino]propyl]-2-methoxyphenyl]sulfonyl]-methoxyphenyl]sulfonyl]piperidine oxalate]",Ki,dopamine D2-receptor,89.1 nM
same,pA2 value,α1-adrenoceptor,9.10
"CCOc1ccc(F)cc1OCCNC(C)Cc1ccc(OC)c(S(=O)(=O)N(C)C)c1.O=C(O)C(=O)O (stereo not drawn) [Example 15, 5-[2-[2-(2-Ethoxy-5-fluorophenoxy)ethylamino]propyl]-2-methoxy-N,N-dimethylbenzenesulfonamide oxalate]",Ki,dopamine D2-receptor,25.7 nM
same,pA2 value,α1-adrenoceptor,9.48
same,α1-adrenoceptor selectivity 10^(pA2-pKi),α1-adrenoceptor,78
